The target in this experiment is T1, hGIP-R (Homo sapiens, UniProt P48546).
T1 construct: expressed in transfected cells; host or cells: HEK-293 clonal cell lines
T1 sequence (P48546 22-466): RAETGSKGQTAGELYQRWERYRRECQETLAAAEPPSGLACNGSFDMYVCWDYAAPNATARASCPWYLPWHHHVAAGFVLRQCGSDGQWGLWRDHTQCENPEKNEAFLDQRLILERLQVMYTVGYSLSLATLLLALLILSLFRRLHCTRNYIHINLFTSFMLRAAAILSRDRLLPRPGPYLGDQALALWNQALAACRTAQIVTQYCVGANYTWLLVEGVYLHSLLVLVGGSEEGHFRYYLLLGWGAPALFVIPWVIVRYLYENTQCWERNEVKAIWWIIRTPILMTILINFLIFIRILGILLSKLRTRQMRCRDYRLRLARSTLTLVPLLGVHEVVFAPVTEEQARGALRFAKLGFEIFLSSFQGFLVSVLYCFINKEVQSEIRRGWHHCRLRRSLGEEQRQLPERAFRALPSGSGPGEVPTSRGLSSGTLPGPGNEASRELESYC
The experiment is described as follows: Functional hGIP-R Assay (cAMP formation, HTRF). The class given is cell-based. Particulars: for Emax: cAMP efficacy, percent of maximal response to GIP(1-42)OH, 37° C., 0.1% bovine casein, arithmetic mean ± SEM; for EC50: cAMP potency, HEK-293 cells expressing hGIP-R, incubated at 37° C. in the presence of 0.1% bovine casein, geometric mean, read-out: Human GIP-R EC50, nM (SEM, n). On the procedure: Functional activity was determined using CAMP formation in HEK-293 clonal cell lines expressing hGIP-R. hGIP-R receptor expressing cells were treated with compound (20 point concentration-response curve in DMSO, 2-fold Labcyte Echo direct dilution, 384 well plate Corning Cat #3570) in DMEM (Gibco Cat #31053) supplemented with 1× GlutaMAX™ (Gibco Cat #35050), 0.1% bovine casein (Sigma C4765-10ML), 250 μM IBMX (3-Isobutyl-1-methylxanthine, Acros Cat #228420010) and 20 mM HEPES (Gibco Cat #15630) in a 20 μL assay volume (final DMSO concentration was 1%). After a 30 min incubation at 37° C., the resulting increase in intracellular cAMP was quantitatively determined using the Revvity CAMP Dynamic 2 HTRF Assay Kit (62AM4PEJ). Briefly, cAMP levels within the cell were detected by adding the cAMP-d2 conjugate in cell lysis buffer (10 μL) followed by the antibody anti-cAMP-Eu^3+-Cryptate, also in cell lysis buffer (10 μL). The resulting competitive assay was incubated for at least 60 min at RT, then detected using a BMG Labtech PHERAstar FSX instrument with excitation at 320 nm and emission at 665 nm and 620 nm. PHERAstar units (emission at 665 nm/620 nm*10,000) are inversely proportional to the amount of cAMP present and were converted to nM cAMP per well using a CAMP standard curve. The amount of cAMP generated (nM) in each well was converted to a percent of the maximal response observed with human GIP (1-42) OH. A relative EC50 value and percent top (Emax) were derived by non-linear regression analysis using the percent maximal response vs. the concentration of compound added, fitted to a four-parameter logistic equation.
Background: Cyclic AMP is a second messenger, typically raised through Gs and lowered through Gi signalling.

By Emax is commonly meant the size of the effect at its maximum, as opposed to the concentration needed. What is called EC50 is the concentration that produces a half-maximal response.

`Cn1cc(C[C@@H](NC(=O)[C@H]2C[C@@H]2c2ccc(-c3cnc4nn(C)cc4c3)cc2)C(=O)NC(C)(C)Cn2nc(C(F)(F)F)cc2-c2ccnc(C(C)(C)O)c2)cn1` [Example 18, (1S,2S)-N-((R)-1-((1-(5-(2-(2-Hydroxypropan-2-yl)pyridin-4-yl)-3-(trifluoromethyl)-1H-pyrazol-1-yl)-2-methylpropan-2-yl)amino)-3-(1-methyl-1H-pyrazol-4-yl)-1-oxopropan-2-yl)-2-(4-(2-methyl-2H-pyrazolo [3,4-b]pyridin-5-yl)phenyl) cyclopropane-1-carboxamide]: the maximum response (Emax) amounted to 116 ± 13% and the 50% effective concentration (EC50) came out at 12 nM.
As for `Cn1cc(C[C@@H](NC(=O)[C@H]2C[C@@H]2c2ccc(-c3cnc4nn(C)cc4c3)cc2)C(=O)NC(C)(C)Cn2nc(C(F)(F)F)cc2-c2ccc(=O)n(C)c2)cn1` [Example 19, (1S,2S)-N-((R)-1-((2-Methyl-1-(5-(1-methyl-6-oxo-1,6-dihydropyridin-3-yl)-3-(trifluoromethyl)-1H-pyrazol-1-yl)propan-2-yl)amino)-3-(1-methyl-1H-pyrazol-4-yl)-1-oxopropan-2-yl)-2-(4-(2-methyl-2H-pyrazolo[3,4-b]pyridin-5-yl)phenyl) cyclopropane-1-carboxamide], the Emax stood at 123 ± 1.72% and the EC50 turned out to be 66.9 nM.
In the same order, the values of `Cn1cc(C[C@@H](NC(=O)[C@H]2C[C@@H]2c2ccc(-c3cnc4nn(C)cc4c3)cc2)C(=O)NC(C)(C)Cn2nc(C(F)(F)F)cc2-n2ccccc2=O)cn1` [Example 20, (1S,2S)-N-((R)-1-((2-Methyl-1-(5-(2-oxopyridin-1(2H)-yl)-3-(trifluoromethyl)-1H-pyrazol-1-yl)propan-2-yl)amino)-3-(1-methyl-1H-pyrazol-4-yl)-1-oxopropan-2-yl)-2-(4-(2-methyl-2H-pyrazolo[3,4-b]pyridin-5-yl)phenyl) cyclopropane-1-carboxamide] are 126 ± 2.39% and 79.7 nM.
In the same order, the values of `Cn1cc(C[C@@H](NC(=O)[C@H]2C[C@@H]2c2ccc(-c3cnc4nn(C)cc4c3)cc2)C(=O)NC(C)(C)Cn2nc(C(F)(F)F)cc2C2CC2)cn1` [Example 21, (1S,2S)-N-((R)-1-((1-(5-Cyclopropyl-3-(trifluoromethyl)-1H-pyrazol-1-yl)-2-methylpropan-2-yl)amino)-3-(1-methyl-1H-pyrazol-4-yl)-1-oxopropan-2-yl)-2-(4-(2-methyl-2H-pyrazolo [3,4-b]pyridin-5-yl)phenyl) cyclopropane-1-carboxamide] are 102 ± 1.71% and 63.4 nM.
The matching figures for `Cn1cc(C[C@@H](NC(=O)[C@H]2C[C@@H]2c2ccc(-c3cnc4nn(C)cc4c3)nc2C(F)(F)F)C(=O)NC(C)(C)Cn2cc(C(F)(F)F)cn2)cn1` [Example 22, (1S,2S)-N-((R)-1-((2-Methyl-1-(4-(trifluoromethyl)-1H-pyrazol-1-yl)propan-2-yl)amino)-3-(1-methyl-1H-pyrazol-4-yl)-1-oxopropan-2-yl)-2-(6-(2-methyl-2H-pyrazolo[3,4-b]pyridin-5-yl)-2-(trifluoromethyl)pyridin-3-yl)cyclopropane-1-carboxamide]: 109 ± 11.6% and 61.3 nM.
`Cn1cc(C[C@@H](NC(=O)[C@H]2C[C@@H]2c2ccc(-c3cnc4nc(C(F)(F)F)cn4c3)cc2)C(=O)NC(C)(C)Cn2nc(C(F)(F)F)cc2-n2ccnn2)cn1` [Example 23, (1S,2S)-N-((R)-1-((1-(5-(1H-1,2,3-Triazol-1-yl)-3-(trifluoromethyl)-1H-pyrazol-1-yl)-2-methylpropan-2-yl)amino)-3-(1-methyl-1H-pyrazol-4-yl)-1-oxopropan-2-yl)-2-(4-(2-(trifluoromethyl)imidazo [1,2-a]pyrimidin-6-yl)phenyl) cyclopropane-1-carboxamide]: the Emax was determined as 111 ± 11.6% and the EC50 worked out at 44.4 nM.
In the same order, the values of `COC(=O)c1cc(C(F)(F)F)nn1CC(C)(C)NC(=O)[C@@H](Cc1cnn(C)c1)NC(=O)[C@H]1C[C@@H]1c1ccc(-c2cnc3nc(C(F)(F)F)cn3c2)cc1` [Example 24, Methyl 1-(2-methyl-2-((R)-3-(1-methyl-1H-pyrazol-4-yl)-2-((15,2S)-2-(4-(2-(trifluoromethyl)imidazo [1,2-a]pyrimidin-6-yl)phenyl)cyclopropane-1-carboxamido)propanamido)propyl)-3-(trifluoromethyl)-1H-pyrazole-5-carboxylate] are 133 ± 0.579% and 15.8 nM.
The matching figures for `Cn1cc(C[C@@H](NC(=O)[C@H]2C[C@@H]2c2ccc(-c3cnc4nc(C(F)(F)F)cn4c3)cc2)C(=O)NC(C)(C)Cn2nc(C(F)(F)F)cc2-c2nnc[nH]2)cn1` [Example 25, (1S,2S)-N-((R)-1-((1-(5-(4H-1,2,4-Triazol-3-yl)-3-(trifluoromethyl)-1H-pyrazol-1-yl)-2-methylpropan-2-yl)amino)-3-(1-methyl-1H-pyrazol-4-yl)-1-oxopropan-2-yl)-2-(4-(2-(trifluoromethyl)imidazo [1,2-a]pyrimidin-6-yl)phenyl) cyclopropane-1-carboxamide]: 142 ± 17.3% and 82.7 nM.
`Cn1cc(C[C@@H](NC(=O)[C@H]2C[C@@H]2c2ccc(-c3cnc4nc(C(F)(F)F)cn4c3)cc2)C(=O)NC(C)(C)Cn2nc(C(F)(F)F)cc2-c2cn[nH]n2)cn1` [Example 26, (1S,2S)-N-((R)-1-((1-(5-(2H-1,2,3-Triazol-4-yl)-3-(trifluoromethyl)-1H-pyrazol-1-yl)-2-methylpropan-2-yl)amino)-3-(1-methyl-1H-pyrazol-4-yl)-1-oxopropan-2-yl)-2-(4-(2-(trifluoromethyl)imidazo [1,2-a]pyrimidin-6-yl)phenyl) cyclopropane-1-carboxamide]: the Emax is 132 ± 15.5% and the EC50 was 17.4 nM.
As for `Cn1cc(C[C@@H](NC(=O)[C@H]2C[C@@H]2c2ccc(-c3cnc4nccn4c3)cc2)C(=O)NC(C)(C)Cn2nc(C(F)(F)F)cc2-c2cn[nH]n2)cn1` [Example 27, (1S,2S)-N-((R)-1-((1-(5-(2H-1,2,3-Triazol-4-yl)-3-(trifluoromethyl)-1H-pyrazol-1-yl)-2-methylpropan-2-yl)amino)-3-(1-methyl-1H-pyrazol-4-yl)-1-oxopropan-2-yl)-2-(4-(imidazo[1,2-a]pyrimidin-6-yl)phenyl) cyclopropane-1-carboxamide], the maximum response (Emax) came to 99.3% and the 50% effective concentration (EC50) turned out to be 61.6 nM.
The matching figures for `Cn1cc(C[C@@H](NC(=O)[C@H]2C[C@@H]2c2ccc(-c3cnc4nccn4c3)cc2)C(=O)NC(C)(C)Cn2nc(C(F)(F)F)cc2-c2cnn(C)c2)cn1` [Example 28, (1S,2S)-2-(4-(Imidazo[1,2-a]pyrimidin-6-yl)phenyl)-N-((R)-1-((2-methyl-1-(1′-methyl-5-(trifluoromethyl)-1′H,2H-[3,4′-bipyrazol]-2-yl)propan-2-yl)amino)-3-(1-methyl-1H-pyrazol-4-yl)-1-oxopropan-2-yl)cyclopropane-1-carboxamide]: 91.9 ± 0.597% and 20.5 nM.
In the same order, the values of `CN(C(=O)[C@H]1C[C@@H]1c1ccc(-c2cnc3nn(C)cc3c2)cc1)[C@H](Cc1cnn(C)c1)C(=O)NC(C)(C)Cn1nc(C(F)(F)F)cc1-c1n[nH]c(=O)s1` [Example 30, (1S,2S)-N-Methyl-N-((R)-1-((2-methyl-1-(5-(5-oxo-4,5-dihydro-1,3,4-thiadiazol-2-yl)-3-(trifluoromethyl)-1H-pyrazol-1-yl)propan-2-yl)amino)-3-(1-methyl-1H-pyrazol-4-yl)-1-oxopropan-2-yl)-2-(4-(2-methyl-2H-pyrazolo[3,4-b]pyridin-5-yl)phenyl) cyclopropane-1-carboxamide] are 95.2 ± 0.936% and 198 nM.

Source of the values: patent publication US20260108546A1 (ELI LILLY AND COMPANY, priority 2024, published 2026).
